Tests used:
KB [1] = assay: Growth inhibition of human KB cells xenografted in NCr nu/nu mouse at 0.78 to 3.125 mg/kg, ip once daily administered from day 3 to 6 after implantation measured on day 7 by MTT-based hollow-fiber test; type: functional; settings: route intraperitoneal
KB [2] = assay: Growth inhibition of human KB cells xenografted in NCr nu/nu mouse at 0.78 to 3.125 mg/kg, sc once daily administered from day 3 to 6 after implantation measured on day 7 by MTT-based hollow-fiber test; type: functional; settings: route subcutaneous
LNCaP [3] = assay: Growth inhibition of human LNCAP cells xenografted in NCr nu/nu mouse at 0.78 to 3.125 mg/kg, ip once daily administered from day 3 to 6 after implantation measured on day 7 by MTT-based hollow-fiber test; type: functional; settings: route intraperitoneal
LNCaP [4] = assay: Growth inhibition of human LNCAP cells xenografted in NCr nu/nu mouse at 0.78 to 3.125 mg/kg, sc once daily administered from day 3 to 6 after implantation measured on day 7 by MTT-based hollow-fiber test; type: functional; settings: route subcutaneous
LNCaP [5] = assay: Growth inhibition of human LNCAP cells xenografted in ip dosed NCr nu/nu mouse administered once daily from day 3 to 6 after implantation measured on day 7 by MTT-based hollow-fiber test; type: functional
Lu1 [6] = assay: Growth inhibition of human Lu1 cells xenografted in NCr nu/nu mouse at 6.2 to 25 mg/kg, ip once daily administered from day 3 to 6 after implantation measured on day 7 by MTT-based hollow-fiber test; type: functional; settings: dose mg/kg 3-6; route intraperitoneal
Lu1 [7] = assay: Growth inhibition of human Lu1 cells xenografted in NCr nu/nu mouse at 6.2 to 25 mg/kg, sc once daily administered from day 3 to 6 after implantation measured on day 7 by MTT-based hollow-fiber test; type: functional; settings: dose mg/kg 3-6; route subcutaneous
LNCaP [8] = assay: Growth inhibition of human LNCAP cells xenografted in NCr nu/nu mouse at 6.2 to 25 mg/kg, ip once daily administered from day 3 to 6 after implantation measured on day 7 by MTT-based hollow-fiber test; type: functional; settings: route intraperitoneal
LNCaP [9] = assay: Growth inhibition of human LNCAP cells xenografted in NCr nu/nu mouse at 6.2 to 25 mg/kg, sc once daily administered from day 3 to 6 after implantation measured on day 7 by MTT-based hollow-fiber test; type: functional; settings: route subcutaneous
KB [10] = assay: Growth inhibition of human KB cells xenografted in NCr nu/nu mouse at 6.2 to 25 mg/kg, ip once daily administered from day 3 to 6 after implantation measured on day 7 by MTT-based hollow-fiber test; type: functional; settings: route intraperitoneal
KB [11] = assay: Growth inhibition of human KB cells xenografted in NCr nu/nu mouse at 6.2 to 25 mg/kg, sc once daily administered from day 3 to 6 after implantation measured on day 7 by MTT-based hollow-fiber test; type: functional; settings: route subcutaneous
Lu1 [12] = assay: Growth inhibition of human Lu1 cells xenografted in ip dosed NCr nu/nu mouse administered once daily from day 3 to 6 after implantation measured on day 7 by MTT-based hollow-fiber test; type: functional
LNCaP [13] = assay: Growth inhibition of human LNCAP cells xenografted in NCr nu/nu mouse at 10 to 40 mg/kg, ip once daily administered from day 3 to 6 after implantation measured on day 7 by MTT-based hollow-fiber test; type: functional; settings: route intraperitoneal
LNCaP [14] = assay: Growth inhibition of human LNCAP cells xenografted in NCr nu/nu mouse at 10 to 40 mg/kg, sc once daily administered from day 3 to 6 after implantation measured on day 7 by MTT-based hollow-fiber test; type: functional; settings: route subcutaneous
LNCaP [15] = assay: Growth inhibition of human LNCAP cells xenografted in NCr nu/nu mouse at 5 to 20 mg/kg, ip once daily administered from day 3 to 6 after implantation measured on day 7 by MTT-based hollow-fiber test; type: functional; settings: route intraperitoneal
LNCaP [16] = assay: Growth inhibition of human LNCAP cells xenografted in NCr nu/nu mouse at 5 to 20 mg/kg, sc once daily administered from day 3 to 6 after implantation measured on day 7 by MTT-based hollow-fiber test; type: functional; settings: route subcutaneous
Lu1 [17] = assay: Growth inhibition of human Lu1 cells xenografted in NCr nu/nu mouse at 0.625 to 5 mg/kg, ip once daily administered from day 3 to 6 after implantation measured on day 7 by MTT-based hollow-fiber test; type: functional; settings: dose mg/kg 3-6; route intraperitoneal
Lu1 [18] = assay: Growth inhibition of human Lu1 cells xenografted in NCr nu/nu mouse at 0.625 to 5 mg/kg, sc once daily administered from day 3 to 6 after implantation measured on day 7 by MTT-based hollow-fiber test; type: functional; settings: dose mg/kg 3-6; route subcutaneous
LNCaP [19] = assay: Growth inhibition of human LNCAP cells xenografted in NCr nu/nu mouse at 0.625 to 5 mg/kg, ip once daily administered from day 3 to 6 after implantation measured on day 7 by MTT-based hollow-fiber test; type: functional; settings: route intraperitoneal
LNCaP [20] = assay: Growth inhibition of human LNCAP cells xenografted in NCr nu/nu mouse at 0.625 to 5 mg/kg, sc once daily administered from day 3 to 6 after implantation measured on day 7 by MTT-based hollow-fiber test; type: functional; settings: route subcutaneous
MCF7 [21] = assay: Growth inhibition of human MCF7 cells xenografted in NCr nu/nu mouse at 0.625 to 5 mg/kg, ip once daily administered from day 3 to 6 after implantation measured on day 7 by MTT-based hollow-fiber test; type: functional; settings: dose mg/kg 3-6; route intraperitoneal
MCF7 [22] = assay: Growth inhibition of human MCF7 cells xenografted in NCr nu/nu mouse at 0.625 to 5 mg/kg, sc once daily administered from day 3 to 6 after implantation measured on day 7 by MTT-based hollow-fiber test; type: functional; settings: dose mg/kg 3-6; route subcutaneous
[23] = Acute toxicity in ip dosed mouse; type: organism-based; settings: in vivo
MCF7 [24] = assay: Growth inhibition of human MCF7 cells xenografted in ip dosed NCr nu/nu mouse administered once daily from day 3 to 6 after implantation measured on day 7 by MTT-based hollow-fiber test; type: functional

CC(=O)O[C@@H]1O[C@@H]([C@H]2c3cccc(O)c3C(=O)c3c(O)cc(C)cc32)[C@H](O)[C@@H](OC(=O)C=C(C)C)[C@H]1O [ALVARADOIN H]
growth inhibition (GI) (KB [1]): 43%
growth inhibition (GI) (KB [2]): 1%
growth inhibition (GI) (LNCaP [3]): 47%
growth inhibition (GI) (LNCaP [4]): 10%
ED50 (LNCaP [5]): 290 nM

C[C@@H]1CC[C@@]2(OC1)O[C@H]1C[C@H]3[C@@H]4CC=C5C[C@@H](O[C@@H]6O[C@H](CO)[C@@H](O[C@@H]7O[C@@H](C)[C@H](O)[C@@H](O)[C@H]7O)[C@H](O)[C@H]6O[C@@H]6O[C@@H](C)[C@H](O)[C@@H](O)[C@H]6O)CC[C@]5(C)[C@H]4CC[C@]3(C)[C@H]1[C@@H]2C [DIOSCIN]
growth inhibition (GI) (Lu1 [6]): 25%
growth inhibition (GI) (Lu1 [7]): 0%
growth inhibition (GI) (LNCaP [8]): 37%
growth inhibition (GI) (LNCaP [9]): 36%
growth inhibition (GI) (KB [10]): 79%
growth inhibition (GI) (KB [11]): 4%
ED50 (LNCaP [5]): 1700 nM
ED50 (Lu1 [12]): 1200 nM

COc1ccc([C@H]2COc3c(ccc4c3C=CC(C)(CCC=C(C)C)O4)C2)c(O)c1O (some centres undefined) [NITIDULIN]
growth inhibition (GI) (LNCaP [13]): 54%
growth inhibition (GI) (LNCaP [14]): 0%
ED50 (LNCaP [5]): 9700 nM

O=C1OC[C@@H]2Cc3cc4c(cc3[C@@H](c3ccc5c(c3)OCO5)[C@H]12)OCO4 [PICROPOLYGAMAIN]
growth inhibition (GI) (LNCaP [15]): 21%
growth inhibition (GI) (LNCaP [16]): 3%
ED50 (LNCaP [5]): 3100 nM

COC(=O)[C@H]1[C@@H](O)[C@@]2(O)c3c(OC)cc(O[C@@H]4O[C@@H]([C@H](O)CO)CO[C@H]4OC)cc3O[C@@]2(c2ccc(OC)cc2)[C@@H]1c1ccccc1 [SILVESTROL]
growth inhibition (GI) (Lu1 [17]): 12%
growth inhibition (GI) (Lu1 [18]): 0%
growth inhibition (GI) (LNCaP [19]): 15%
growth inhibition (GI) (LNCaP [20]): 12%
growth inhibition (GI) (MCF7 [21]): 20%
growth inhibition (GI) (MCF7 [22]): 5%
MTD [23]: 2.5 mg/kg
ED50 (MCF7 [24]): 1.5 nM
ED50 (LNCaP [5]): 1.5 nM
ED50 (Lu1 [12]): 1.2 nM

— ChEMBL document CHEMBL1152339, “Use of the in vivo hollow fiber assay in natural products anticancer drug discovery” (J Nat Prod, 2009)
